For 84 molecules, IC50 results are on record in the Kinase Knowledgebase extract (Sharma et al. 2016).

Bounds are passed on as bounds.

In general, IC50 refers to the point on the concentration scale where inhibition reaches its midpoint. High values mean lower potency, low ones higher potency.

In this test the target is PIK3CG (human) (UniProt P48736). Nature of the test: Assessment of PIK3CG Kinase Activity.
Sequence of PIK3CG (human) (P48736 whole entry, looked up): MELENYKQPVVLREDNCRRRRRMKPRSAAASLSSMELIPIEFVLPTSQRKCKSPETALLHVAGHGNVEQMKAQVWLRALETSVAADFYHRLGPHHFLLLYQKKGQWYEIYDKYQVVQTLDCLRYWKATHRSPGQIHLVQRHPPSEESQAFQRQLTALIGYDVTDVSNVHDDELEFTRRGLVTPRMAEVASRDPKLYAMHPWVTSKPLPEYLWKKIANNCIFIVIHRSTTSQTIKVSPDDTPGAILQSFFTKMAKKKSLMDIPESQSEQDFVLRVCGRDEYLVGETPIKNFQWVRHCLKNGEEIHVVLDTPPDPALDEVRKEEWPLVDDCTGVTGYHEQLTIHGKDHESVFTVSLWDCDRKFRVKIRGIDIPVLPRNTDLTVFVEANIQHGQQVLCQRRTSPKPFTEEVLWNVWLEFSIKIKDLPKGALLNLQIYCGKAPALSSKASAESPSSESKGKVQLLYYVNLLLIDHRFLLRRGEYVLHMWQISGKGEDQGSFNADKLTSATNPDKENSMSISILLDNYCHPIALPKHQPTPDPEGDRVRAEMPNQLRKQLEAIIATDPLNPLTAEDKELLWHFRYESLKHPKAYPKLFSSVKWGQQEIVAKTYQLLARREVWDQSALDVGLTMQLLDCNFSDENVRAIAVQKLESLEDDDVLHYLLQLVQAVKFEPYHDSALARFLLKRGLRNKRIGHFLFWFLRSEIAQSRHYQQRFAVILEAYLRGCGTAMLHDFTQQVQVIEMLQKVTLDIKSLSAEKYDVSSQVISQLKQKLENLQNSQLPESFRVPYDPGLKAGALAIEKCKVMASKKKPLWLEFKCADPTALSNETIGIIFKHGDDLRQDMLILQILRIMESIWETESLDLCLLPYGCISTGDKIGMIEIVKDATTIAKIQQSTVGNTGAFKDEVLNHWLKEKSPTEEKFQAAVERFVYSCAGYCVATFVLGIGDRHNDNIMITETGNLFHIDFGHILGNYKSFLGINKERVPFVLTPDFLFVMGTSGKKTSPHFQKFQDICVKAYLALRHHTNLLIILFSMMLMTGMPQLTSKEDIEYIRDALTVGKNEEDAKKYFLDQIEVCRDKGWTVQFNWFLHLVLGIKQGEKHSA
The molecule `CC(=O)Nc1nc2c(s1)-c1c(cnn1-c1ccc(C(=O)N[C@H]3CC[C@H](N4CCN(C)CC4)CC3)cc1)CC2` yielded a half-maximal inhibitory concentration (IC50) below 800 nM.
Under `CC(=O)Nc1nc2c(s1)-c1c(c(C(=O)NCCO)nn1-c1ccccc1)CC2` stands below 800 nM; under `CC(=O)Nc1nc2c(s1)-c1c(c(C)nn1-c1ccccc1Cl)CC2`, below 800 nM; under `CC(=O)Nc1nc2c(s1)-c1c(c(C(C)C)nn1-c1ccccc1Br)CC2`, below 800 nM.
Under `CC(=O)Nc1nc2c(s1)-c1c(cnn1-c1ccc(C(=O)N[C@H]3CC[C@@H](N4CCC(C)(C)CC4)CC3)cc1)CC2` stands below 800 nM; under `CC(=O)Nc1nc2c(s1)-c1nn(-c3ccccc3Cl)c(-c3ccoc3)c1CC2`, below 800 nM; under `CC(=O)Nc1nc2c(s1)-c1c(cnn1-c1ccc(S(=O)(=O)O)cc1)CC2`, below 800 nM.
Under `CC(=O)Nc1nc2c(s1)-c1c(cnn1-c1ccc(C(=O)N[C@H](Cc3ccc(O)cc3)C(N)=O)cc1)CC2` stands below 800 nM; under `CC[C@H](NC(=O)c1ccc(-n2ncc3c2-c2sc(NC(C)=O)nc2CC3)c(Cl)c1)C(N)=O`, below 800 nM; under `CN(C)CCCC(=O)Nc1nc2c(s1)-c1nc(-c3ccccc3)ncc1CC2`, below 800 nM.
Turning to `CC(=O)Nc1nc2c(s1)-c1c(cnn1-c1ccc(C(=O)NCc3ccccc3O)cc1)CC2`, the IC50 was below 800 nM.
Then `CC(=O)Nc1nc2c(s1)-c1c(c(C(C)C)nn1-c1ccc(C(=O)N[C@H]3CC[C@H](N4CCCC4)CC3)cc1Cl)CC2`, with below 800 nM.
`CN(C)c1ncc2c(n1)-c1sc(NC(N)=O)nc1CC2` returned an IC50 below 800 nM.
Under `CC(=O)Nc1nc2c(s1)-c1cc(NC(C)C)ccc1CC2` stands below 800 nM.
Under `CC(=O)Nc1nc2c(s1)-c1c(cnn1-c1ccc(C(=O)N[C@H](C(N)=O)C(C)C)cc1Cl)CC2` stands below 800 nM.
Molecule `CC(=O)Nc1nc2c(s1)-c1c(cnn1-c1ccc(CC(=O)N3CCC(CO)CC3)cc1)CC2` came in with an IC50 below 800 nM.
Under `COCc1nn(-c2ccc(C(=O)N[C@H]3CC[C@H](N4CCCC4)CC3)cc2Cl)c2c1CCc1nc(NC(C)=O)sc1-2` stands below 800 nM.
`CC(=O)Nc1nc2c(s1)-c1c(cnn1-c1ccc(CC(=O)N[C@@H]3CCOC3=O)cc1)CC2` came in with an IC50 below 800 nM.
Then `CC(=O)Nc1nc2c(s1)-c1c(c(-c3ccccc3)nn1-c1ccccc1Br)CC2`, with below 800 nM; and `CC(=O)Nc1nc2c(s1)-c1c(cnn1-c1ccc(C(=O)N[C@H]3CC[C@@H](N4CCN(C)CC4)CC3)cc1)CC2`, with below 800 nM.
Under `CC(=O)Nc1nc2c(s1)-c1nc(N3CCCC(CN)C3)ncc1CC2` (centres undefined) stands below 800 nM.
Then `CNC(=O)Nc1nc2c(s1)-c1nc(-c3ccccc3C)ncc1CC2`, with below 800 nM.
In turn, `CN(C)C(=O)Nc1nc2c(s1)-c1c(cnn1-c1ccccc1)C2` had an IC50 below 800 nM.
`CC(=O)Nc1nc2c(s1)-c1c(cnn1-c1ccc(CC(=O)N(C)CC(=O)N(C)C)cc1)CC2`: the IC50 is below 800 nM.
Then `CNC(=O)Nc1nc2c(s1)-c1c(cnn1-c1ccccc1)CC2`, with below 800 nM.
Then `CC(=O)Nc1nc2c(s1)-c1c(cnn1-c1ccc(C(=O)NCCCCCCNC(=O)c3ccccc3)cc1)CC2`, with below 800 nM.
Then `CC(=O)Nc1nc2c(s1)-c1c(cnn1-c1ccc(C(=O)N[C@@H](Cc3cccc(Cl)c3)C(N)=O)cc1Cl)CC2`, with below 800 nM.
In the case of `CC(=O)Nc1nc2c(s1)-c1c(cnn1-c1ccc(C(=O)N3CCC(NC(=O)c4ccccc4)CC3)cc1)CC2`, the IC50 is below 800 nM.
Then `CC(=O)Nc1nc2c(s1)-c1nn(C(=O)C(C)C)cc1CC2`, with below 800 nM; and `CC(=O)Nc1nc2c(s1)-c1nc(N3CCC4(CN(C)C4)C3)ncc1CC2`, with below 800 nM; and `CC(=O)Nc1nc2c(s1)-c1c(c([C@H]3CCCO3)nn1-c1ccccc1C(F)(F)F)CC2`, with below 800 nM.
Then `CCN(CC)C(=O)C1CCCCN1C(=O)c1ccc(-n2ncc3c2-c2sc(NC(C)=O)nc2CC3)cc1` (centres undefined), with below 800 nM; and `COC(=O)c1nn(-c2c(Cl)cccc2Cl)c2c1CCc1nc(NC(C)=O)sc1-2`, with below 800 nM; and `CC(=O)Nc1nc2c(s1)-c1c(cnn1-c1cccc(Cl)c1)C2`, with below 800 nM.
`CC(=O)Nc1nc2c(s1)-c1nc(-c3ccc(O)cc3)ncc1CC2` displayed an IC50 below 800 nM.
Under `O=C(CCN1CCCCC1)Nc1nc2c(s1)-c1c(cnn1-c1ccccc1)CC2` stands below 800 nM; under `CCN1CCCC(NC(=O)Cc2ccc(-n3ncc4c3-c3sc(NC(C)=O)nc3CC4)cc2)C1` (centres undefined), below 800 nM; under `CC(=O)Nc1nc2c(s1)-c1c(cnn1-c1ccc(C(=O)N3CCC(N4CCCCC4)CC3)cc1Cl)CC2`, below 800 nM.
Under `CC(=O)Nc1nc2c(s1)-c1c(c(C(N)=O)nn1-c1ccccc1Cl)CC2` stands below 800 nM; under `Cc1ccccc1-c1ncc2c(n1)-c1sc(NC(N)=O)nc1CC2`, below 800 nM; under `C#CCN(C(=O)OC(C)(C)C)c1ncc2c(n1)-c1sc(NC(C)=O)nc1CC2`, below 800 nM.
On to `CC(=O)Nc1nc2c(s1)-c1c(cnn1-c1cccc(C)c1)CC2`, for which the IC50 was below 800 nM.
Then `CN(C)CCCC(=O)Nc1nc2c(s1)-c1c(cnn1-c1ccccc1Cl)C2`, with below 800 nM.
Under `CC(=O)Nc1nc2c(s1)-c1c(c(-c3ccccc3)nn1-c1ccccc1C)CC2` stands below 800 nM; under `CC(=O)Nc1nc2c(s1)-c1c(cnn1-c1ccc(C(=O)N[C@H]3CC[C@@H](N4CCN(CC5CC5)CC4)CC3)cc1)CC2`, below 800 nM; under `CC(=O)Nc1nc2c(s1)-c1c(cnn1-c1ccc(C(=O)NCCCCCCNC(=O)Cc3ccccc3)cc1)CC2`, below 800 nM.
Then `CC(=O)Nc1nc2c(s1)-c1c(c(-c3ccoc3)nn1-c1ccc(Cl)cc1)CC2`, with below 800 nM; and `CC(=O)Nc1nc2c(s1)-c1c(cnn1-c1ccc(C(C)(C)C)cc1)CC2`, with below 800 nM.
`CC(=O)Nc1nc2c(s1)-c1c(cnn1-c1ccc(C(=O)N[C@H]3CC[C@@H](N4C[C@@H](C)O[C@@H](C)C4)CC3)cc1)CC2`: the IC50 was below 800 nM.
Then `CCC(=O)Nc1nc2c(s1)-c1c(cnn1-c1ccccc1)CC2`, with below 800 nM; and `CC(=O)Nc1nc2c(s1)-c1nc(C(C)C)nc(O)c1CC2`, with below 800 nM; and `CN1CCN(C(=O)Nc2nc3c(s2)-c2c(cnn2-c2ccccc2)C3)CC1`, with below 800 nM.
Take `CCc1ccccc1-n1ncc2c1-c1sc(NC(C)=O)nc1CC2`: the IC50 was below 800 nM.
Under `CC(=O)Nc1nc2c(s1)-c1nc(-c3ccccc3C)ncc1CC2` stands below 800 nM; under `NCC#CCNC(=O)Nc1nc2c(s1)-c1c(cnn1-c1ccccc1)CC2`, below 800 nM; under `CC(=O)Nc1nc2c(s1)-c1c(cnn1-c1ccc(C(=O)NC3CCOC3=O)cc1)CC2` (centres undefined), below 800 nM.
Under `CC(=O)Nc1nc2c(s1)-c1c(cnn1-c1ccc(C(=O)NC3CCCC3)cc1)CC2` stands below 800 nM; under `CC(=O)Nc1nc2c(s1)-c1nc(N(CCN(C)C)C(C)=O)ncc1CC2`, below 800 nM; under `CC(=O)Nc1nc2c(s1)-c1c(cnn1-c1ccc(C(=O)N(C)Cc3nccn3C)cc1)CC2`, below 800 nM.
Under `COC(=O)c1nn(-c2ccccc2C)c2c1CCc1nc(NC(C)=O)sc1-2` stands below 800 nM; under `C=CCNC(=O)c1ccc(-n2ncc3c2-c2sc(NC(C)=O)nc2CC3)cc1`, below 800 nM; under `CC(=O)Nc1nc2c(s1)-c1nn(-c3ccccc3)c(-c3cn(C)cn3)c1CC2`, below 800 nM.
The molecule `CC(=O)Nc1nc2c(s1)-c1c(cnn1-c1ccc(C(=O)NC3CCC(NC(=O)c4cccc5ccccc45)CC3)cc1)CC2` (centres undefined) showed an IC50 below 800 nM.
Under `CC(=O)Nc1nc2c(s1)-c1nn(C(=O)C3CC3)cc1CC2` stands below 800 nM; under `CC(=O)Nc1nc2c(s1)-c1c(cnn1-c1ccc(CC(=O)N3CCNC(=O)C3)cc1)CC2`, below 800 nM; under `COCc1nn(-c2ccc(C(=O)NCc3ccncc3)cc2Cl)c2c1CCc1nc(NC(C)=O)sc1-2`, below 800 nM.
The molecule `CC(=O)Nc1nc2c(s1)-c1nn(-c3ccccc3Cl)c(-c3ccco3)c1CC2` showed an IC50 below 800 nM.
Under `CC(=O)Nc1nc2c(s1)-c1c(c(-c3cn(C)cn3)nn1-c1ccccc1C(F)(F)F)CC2` stands below 800 nM; under `CC(=O)Nc1nc2c(s1)-c1c(cnn1-c1ccc(C(=O)N3CCC[C@@H]3C(N)=O)cc1)CC2`, below 800 nM.
Then `CC(=O)Nc1nc2c(s1)-c1c(cnn1-c1ccc(C(=O)N(C)Cc3ccccn3)cc1)CC2`, with below 800 nM.
Then `C#Cc1nn(-c2ccccc2C(F)(F)F)c2c1CCc1nc(NC(C)=O)sc1-2`, with below 800 nM; and `CCN(CC)CC1CCCCN1C(=O)Cc1ccc(-n2ncc3c2-c2sc(NC(C)=O)nc2CC3)cc1` (centres undefined), with below 800 nM.
Molecule `CC(=O)Nc1nc2c(s1)-c1c(cnn1-c1ccc(C(=O)N[C@H]3CC[C@@H](N4CCCC4)CC3)cc1)CC2` yielded a concentration for half-maximal inhibition (IC50) below 800 nM.
Turning to `COc1cccc(-c2ncc3c(n2)-c2sc(NC(C)=O)nc2CC3)c1`, the half-inhibitory concentration (IC50) is below 800 nM.
Then `CC(=O)Nc1nc2c(s1)-c1c(cnn1-c1ccc(C(=O)N[C@@H]3CCc4nc(N)sc4C3)cc1)CC2`, with below 800 nM.
In turn, `CC(=O)Nc1nc2c(s1)-c1c(cnn1-c1ccc(Br)cc1)CC2` displayed an IC50 below 800 nM.
Under `CC(=O)Nc1nc2c(s1)-c1c(cnn1-c1ccccc1C(F)(F)F)C2` stands below 800 nM; under `CC(=O)Nc1nc2c(s1)-c1c(cnn1-c1ccc(C(=O)N[C@H](CCCCNC(=N)N)C(N)=O)cc1Cl)CC2`, below 800 nM.
Take `CC(=O)Nc1nc2c(s1)-c1c(cnn1-c1ccc(CC(=O)NCc3nc4ccccc4n3C)cc1)CC2`: the IC50 is below 800 nM.
Then `CC(=O)Nc1nc2c(s1)-c1c(cnn1-c1ccc(CCNC(=O)c3ccccc3)cc1)CC2`, with below 800 nM; and `CC(=O)Nc1nc2c(s1)-c1c(cnn1-c1ccc(C(=O)N[C@H]3CC[C@H](N4C[C@@H](C)O[C@@H](C)C4)CC3)cc1)CC2`, with below 800 nM.
Then `CC(=O)Nc1nc2c(s1)-c1c(c(-c3ccccc3)nn1-c1ccccc1F)CC2`, with below 800 nM.
Then `CC(=O)Nc1nc2c(s1)-c1c(cnn1-c1ccccc1F)C2`, with below 800 nM; and `CC(=O)Nc1nc2c(s1)-c1c(cnn1-c1ccc(C(=O)NCCN(C)C)cc1)CC2`, with below 800 nM.
